Measurements reported in ChEMBL document CHEMBL3526080, “In vitro inhibition of the bile salt export pump correlates with risk of cholestatic drug-induced liver injury in humans” (Drug Metab Dispos, 2012).

What was measured:
[1] = molecular target: Bile salt export pump (Homo sapiens, UniProt O95342); assay: Inhibition of human BSEP expressed in plasma membrane vesicles of Sf21 cells assessed as inhibition of ATP-dependent [3H]taurocholate uptake; format: cell membranes
[2] = molecular target: Bile salt export pump (Rattus norvegicus, UniProt O70127); assay: Inhibition of Sprague-Dawley rat Bsep expressed in plasma membrane vesicles of Sf21 cells assessed as inhibition of ATP-dependent [3H]taurocholate uptake; format: cell membranes
Bile salt export pump (Rattus norvegicus, UniProt O70127), sequence (O70127 whole entry): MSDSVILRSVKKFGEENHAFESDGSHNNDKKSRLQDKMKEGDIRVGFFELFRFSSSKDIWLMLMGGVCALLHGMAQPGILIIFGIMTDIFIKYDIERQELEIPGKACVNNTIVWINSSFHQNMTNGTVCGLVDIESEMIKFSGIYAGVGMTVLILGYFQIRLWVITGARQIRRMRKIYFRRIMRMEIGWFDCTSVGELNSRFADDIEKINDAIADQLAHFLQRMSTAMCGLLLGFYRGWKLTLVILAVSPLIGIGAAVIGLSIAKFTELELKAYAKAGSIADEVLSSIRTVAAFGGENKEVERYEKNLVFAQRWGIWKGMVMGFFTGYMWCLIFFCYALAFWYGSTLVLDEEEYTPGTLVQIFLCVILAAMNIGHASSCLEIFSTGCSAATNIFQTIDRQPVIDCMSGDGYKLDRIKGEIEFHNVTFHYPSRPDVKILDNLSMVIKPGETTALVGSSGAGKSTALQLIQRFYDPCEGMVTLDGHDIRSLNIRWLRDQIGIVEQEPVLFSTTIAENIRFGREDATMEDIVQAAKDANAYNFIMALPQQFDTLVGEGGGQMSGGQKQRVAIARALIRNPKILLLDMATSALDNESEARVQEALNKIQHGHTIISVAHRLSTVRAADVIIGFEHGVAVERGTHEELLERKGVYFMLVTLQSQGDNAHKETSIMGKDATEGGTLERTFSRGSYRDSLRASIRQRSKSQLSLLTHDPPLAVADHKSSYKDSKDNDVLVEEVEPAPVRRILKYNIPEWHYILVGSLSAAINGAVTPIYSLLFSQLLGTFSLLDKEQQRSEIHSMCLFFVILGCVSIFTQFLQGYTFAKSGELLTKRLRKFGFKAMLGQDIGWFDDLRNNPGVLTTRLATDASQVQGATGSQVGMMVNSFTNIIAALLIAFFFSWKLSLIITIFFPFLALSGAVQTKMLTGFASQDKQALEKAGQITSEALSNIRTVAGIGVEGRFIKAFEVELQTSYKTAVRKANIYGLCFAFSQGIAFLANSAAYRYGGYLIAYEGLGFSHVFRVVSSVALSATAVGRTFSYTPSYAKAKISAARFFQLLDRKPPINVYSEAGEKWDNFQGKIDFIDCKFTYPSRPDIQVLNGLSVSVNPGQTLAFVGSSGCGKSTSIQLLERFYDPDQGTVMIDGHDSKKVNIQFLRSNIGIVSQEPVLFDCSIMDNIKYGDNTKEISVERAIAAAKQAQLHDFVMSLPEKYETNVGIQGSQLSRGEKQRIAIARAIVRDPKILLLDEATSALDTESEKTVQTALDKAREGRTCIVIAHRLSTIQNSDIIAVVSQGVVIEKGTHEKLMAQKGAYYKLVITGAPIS

Bile salt export pump (Homo sapiens, UniProt O95342), sequence (O95342 whole entry): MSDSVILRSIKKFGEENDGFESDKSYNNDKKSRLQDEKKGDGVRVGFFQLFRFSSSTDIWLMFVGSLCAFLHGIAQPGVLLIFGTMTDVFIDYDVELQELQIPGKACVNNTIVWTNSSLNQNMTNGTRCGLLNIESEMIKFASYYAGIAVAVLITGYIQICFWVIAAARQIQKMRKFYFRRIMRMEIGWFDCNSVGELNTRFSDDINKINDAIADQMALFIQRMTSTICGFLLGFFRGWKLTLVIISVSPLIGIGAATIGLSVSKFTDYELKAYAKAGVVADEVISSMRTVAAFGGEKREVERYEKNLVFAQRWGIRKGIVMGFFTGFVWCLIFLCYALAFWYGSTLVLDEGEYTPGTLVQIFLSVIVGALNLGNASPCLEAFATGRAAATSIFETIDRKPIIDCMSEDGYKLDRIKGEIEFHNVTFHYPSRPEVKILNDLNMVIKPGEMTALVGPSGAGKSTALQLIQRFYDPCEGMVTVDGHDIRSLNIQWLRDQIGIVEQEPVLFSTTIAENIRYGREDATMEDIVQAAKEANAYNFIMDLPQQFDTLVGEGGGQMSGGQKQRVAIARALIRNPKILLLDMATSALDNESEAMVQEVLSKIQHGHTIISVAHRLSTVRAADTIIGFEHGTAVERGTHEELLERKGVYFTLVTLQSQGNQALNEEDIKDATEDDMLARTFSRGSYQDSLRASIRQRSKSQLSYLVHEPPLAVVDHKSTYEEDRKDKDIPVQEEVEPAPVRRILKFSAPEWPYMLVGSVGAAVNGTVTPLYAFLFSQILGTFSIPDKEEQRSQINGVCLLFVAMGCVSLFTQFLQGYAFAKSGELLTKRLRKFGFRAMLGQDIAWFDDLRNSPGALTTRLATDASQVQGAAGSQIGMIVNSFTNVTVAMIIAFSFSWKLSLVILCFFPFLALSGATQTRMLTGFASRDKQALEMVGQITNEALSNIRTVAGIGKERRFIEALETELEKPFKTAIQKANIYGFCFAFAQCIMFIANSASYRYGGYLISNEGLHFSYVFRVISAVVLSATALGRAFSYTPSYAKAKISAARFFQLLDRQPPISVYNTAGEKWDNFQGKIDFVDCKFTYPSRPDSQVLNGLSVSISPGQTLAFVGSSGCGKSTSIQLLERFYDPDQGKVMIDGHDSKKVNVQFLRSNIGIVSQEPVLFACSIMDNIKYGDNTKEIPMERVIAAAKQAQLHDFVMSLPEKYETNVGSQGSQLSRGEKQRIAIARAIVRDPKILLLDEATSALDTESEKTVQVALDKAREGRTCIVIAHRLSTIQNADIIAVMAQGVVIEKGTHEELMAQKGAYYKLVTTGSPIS

| SMILES | IC50 [1] [µM] | IC50 [2] [µM] |
| --- | --- | --- |
| NC(=O)OCC(COC(N)=O)c1ccccc1 [FELBAMATE] | > 1000 | > 1000 |
| CN(Cc1cnc2nc(N)nc(N)c2n1)c1ccc(C(=O)N[C@@H](CCC(=O)O)C(=O)O)cc1 [METHOTREXATE] | > 1000 | > 1000 |
| CN1CCN(C2=Nc3cc(Cl)ccc3Nc3ccccc32)CC1 [CLOZAPINE] | 126 | 197 |
| COc1cc2c(cc1OC)C(=O)C(CC1CCN(Cc3ccccc3)CC1)C2 (centres undefined) [DONEPEZIL] | 206 | 519 |
| CC1=C(CC(=O)O)c2cc(F)ccc2/C1=C\c1ccc([S+](C)[O-])cc1 (centres undefined) | 226 | 87.5 |
| O=C1CC2(CCCC2)CC(=O)N1CCCCN1CCN(c2ncccn2)CC1 [BUSPIRONE] | 105 | 370 |
| CC(N/C(=N\C#N)Nc1ccncc1)C(C)(C)C (centres undefined) [PINACIDIL ANHYDROUS] | 348 | 222 |
| NNC(=O)c1ccncc1 [ISONIAZID] | > 1000 | > 1000 |
| N[C@@H]1CON=C1O [CYCLOSERINE] | > 1000 | > 1000 |
| O=C(O)[C@H]1/C(=C/CO)O[C@@H]2CC(=O)N21 [CLAVULANIC ACID] | > 1000 | > 1000 |
| CCc1nn(CCCN2CCN(c3cccc(Cl)c3)CC2)c(=O)n1CCOc1ccccc1 [NEFAZODONE] | 4.2 | 17.4 |
| O=C(O)c1cc(=O)c2c(OCC(O)COc3cccc4oc(C(=O)O)cc(=O)c34)cccc2o1 [CROMOLYN] | > 1000 | > 1000 |
| CCCC(CCC)C(=O)O [VALPROIC ACID] | > 1000 | > 1000 |
| CCOC(=O)c1ncn2c1CN(C)C(=O)c1cc(F)ccc1-2 [FLUMAZENIL] | > 1000 | > 1000 |
| CC(C)(S)[C@@H](N)C(=O)O [PENICILLAMINE] | > 1000 | > 1000 |
| C[N+](C)(C)CC(=O)O [BETAINE] | > 1000 | > 1000 |
| CC(=O)O[C@H]1C[C@@]2(C)[C@@H](C[C@@H](O)[C@H]3[C@@]4(C)CC[C@@H](O)[C@@H](C)[C@@H]4CC[C@@]32C)/C1=C(\CCC=C(C)C)C(=O)O [FUSIDIC ACID] | 11.5 | 17.4 |
| CC(C)(Oc1ccc(C2CC2(Cl)Cl)cc1)C(=O)O (centres undefined) [CIPROFIBRATE] | 573 | 190 |
| CC(C)Cc1ccc(C(C)C(=O)O)cc1 (centres undefined) [IBUPROFEN] | 599 | 291 |
| CO[C@H]1/C=C/O[C@@]2(C)Oc3c(C)c(O)c4c(O)c(c(/C=N/N5CCN(C)CC5)c(O)c4c3C2=O)NC(=O)/C(C)=C\C=C\[C@H](C)[C@H](O)[C@@H](C)[C@@H](O)[C@@H](C)[C@H](OC(C)=O)[C@@H]1C [RIFAMPIN] | 11.3 | 34.7 |
| Cn1cnc([N+](=O)[O-])c1Sc1ncnc2nc[nH]c12 [AZATHIOPRINE] |  | > 1000 |
| CCCN(CCC)C(=O)Cc1c(-c2ccc(Cl)cc2)nc2ccc(Cl)cn12 [ALPIDEM] | 9.2 | 23 |
| CCCCNC(=O)NS(=O)(=O)c1ccc(C)cc1 [TOLBUTAMIDE] | > 1000 | > 1000 |
| O=C1CN(/N=C/c2ccc([N+](=O)[O-])o2)C(=O)N1 [NITROFURANTOIN] |  | > 1000 |
| C#CCN(C)Cc1ccccc1 [PARGYLINE] | > 1000 | > 1000 |

| SMILES | IC50 [1] [µM] | IC50 [2] [µM] |
| --- | --- | --- |
| CN(C)CCCN1c2ccccc2Sc2ccc(Cl)cc21 [CHLORPROMAZINE] | 148 | 122 |
| CC(C)(Oc1ccc(CCNC(=O)c2ccc(Cl)cc2)cc1)C(=O)O [BEZAFIBRATE] | 232 | 391 |
| O=NN(CCCl)C(=O)NCCCl [CARMUSTINE] | > 1000 | > 1000 |
| CN1Cc2c(N)cccc2C(c2ccccc2)C1 (centres undefined) [NOMIFENSINE] | > 1000 | > 1000 |
| NC(N)=Nc1nc(CSCCC(N)=NS(N)(=O)=O)cs1 [FAMOTIDINE] | > 1000 | > 1000 |
| O=C(O)c1ccccc1O [SALICYLIC ACID] | > 1000 | > 1000 |
| Cc1ncc(CO)c(CO)c1O [PYRIDOXINE] | > 1000 | > 1000 |
| COc1cc(C)c(/C=C/C(C)=C/C=C/C(C)=C/C(=O)O)c(C)c1C [ACITRETIN] | 18.2 | 19.7 |
| CNC(=O)Oc1ccc2c(c1)[C@]1(C)CCN(C)[C@@H]1N2C [PHYSOSTIGMINE] | > 1000 | > 1000 |
| [H]/N=C(/N)N[C@H]1[C@H](O)[C@@H](O)[C@H](O[C@@H]2O[C@@H](C)[C@](O)(C=O)[C@H]2O[C@@H]2O[C@@H](CO)[C@H](O)[C@@H](O)[C@@H]2NC)[C@@H](N/C(N)=N\[H])[C@@H]1O [STREPTOMYCIN] | > 1000 | > 1000 |
| CN1CCC(=C2c3ccccc3CC(=O)c3sccc32)CC1 [KETOTIFEN] | 738 | > 1000 |
| CCC(=O)O[C@]1(C(=O)CCl)[C@@H](C)C[C@H]2[C@@H]3CCC4=CC(=O)C=C[C@]4(C)[C@@]3(F)[C@@H](O)C[C@@]21C [CLOBETASOL PROPIONATE] | 8.5 | 35 |
| COc1ccccc1Oc1c(NS(=O)(=O)c2ccc(C(C)(C)C)cc2)nc(-c2ncccn2)nc1OCCO [BOSENTAN] | 38.1 | 30.6 |
| COC(=O)C1=C(C)NC(C)=C(C(=O)OC)C1c1ccccc1[N+](=O)[O-] [NIFEDIPINE] | 30.7 | 45.4 |
| O=C(C1CCCCC1)N1CC(=O)N2CCc3ccccc3C2C1 (centres undefined) [PRAZIQUANTEL] | 96.8 | 153 |
| CC(c1cc2ccccc2s1)N(O)C(N)=O (centres undefined) [ZILEUTON] | > 1000 | 564 |
| NNc1nnc(NN)c2ccccc12 [DIHYDRALAZINE] | > 1000 | > 1000 |
| CC(=O)Nc1ccc(OCC(O)CNC(C)C)cc1 (centres undefined) [PRACTOLOL] | > 1000 | > 1000 |
| CC(C(=O)O)c1ccc2oc(-c3ccc(Cl)cc3)nc2c1 (centres undefined) [BENOXAPROFEN] | 175 | 99.1 |
| CN(CCOc1ccc(CC2SC(=O)NC2=O)cc1)c1ccccn1 (centres undefined) [ROSIGLITAZONE] | 6.4 | 40 |
| CC(C)C(=O)Nc1ccc([N+](=O)[O-])c(C(F)(F)F)c1 [FLUTAMIDE] | 143 | 78.7 |
| CO[C@H]1/C=C/O[C@@]2(C)Oc3c(C)c(O)c4c(O)c(cc(O)c4c3C2=O)NC(=O)/C(C)=C\C=C\[C@H](C)[C@H](O)[C@@H](C)[C@@H](O)[C@@H](C)[C@H](OC(C)=O)[C@@H]1C [RIFAMYCIN] | 6.3 | 3.1 |
| O=c1[nH]c(=O)n([C@@H]2O[C@H](CO)[C@@H](O)[C@@H]2F)cc1I [FIALURIDINE] | > 1000 | > 1000 |
| Cc1ccc(S(=O)(=O)NC(=O)NN2CC3CCCC3C2)cc1 (centres undefined) [GLICLAZIDE] | > 1000 | > 1000 |
| CN(C)CCN(Cc1cccs1)c1ccccn1 | > 1000 | > 1000 |

| SMILES | IC50 [1] [µM] | IC50 [2] [µM] |
| --- | --- | --- |
| Cc1c(C)c2c(c(C)c1O)CCC(C)(COc1ccc(CC3SC(=O)NC3=O)cc1)O2 (centres undefined) [TROGLITAZONE] | 2.7 | 10.6 |
| CC(=O)Nc1ccc(O)cc1 [ACETAMINOPHEN] | > 1000 | > 1000 |
| COc1ccc(C(=O)NCc2cccnc2)cc1C(=O)NCc1cccnc1 [PICOTAMIDE] | 441 | 637 |
| Cc1ccc(C(=O)c2cc(O)c(O)c([N+](=O)[O-])c2)cc1 [TOLCAPONE] | 120 | 47.2 |
| Nc1nc2c(ncn2COCCO)c(=O)[nH]1 [ACYCLOVIR] | > 1000 | > 1000 |
| Cc1onc(-c2ccccc2Cl)c1C(=O)N[C@@H]1C(=O)N2[C@@H]1SC(C)(C)[C@@H]2C(=O)O [CLOXACILLIN] | 220 | 377 |
| C[C@H]1COc2c(N3CCN(C)CC3)c(F)cc3c(=O)c(C(=O)O)cn1c23 [LEVOFLOXACIN] | > 1000 | > 1000 |
| Cc1onc(-c2c(Cl)cccc2Cl)c1C(=O)N[C@@H]1C(=O)N2[C@@H]1SC(C)(C)[C@@H]2C(=O)O [DICLOXACILLIN] | 69.7 | 111 |
| CC(C)NNC(=O)c1ccncc1 [IPRONIAZID] | > 1000 | > 1000 |
| COc1ccc(Cl)cc1C(=O)NCCc1ccc(S(=O)(=O)NC(=O)NC2CCCCC2)cc1 [GLYBURIDE] |  | 2.8 |
| O=C(O)Cc1csc(-c2ccc(Cl)cc2)n1 [FENCLOZIC ACID] | > 1000 | > 1000 |
| CC1(C)S[C@@H]2[C@H](NC(=O)[C@H](N)c3ccc(O)cc3)C(=O)N2[C@H]1C(=O)O [AMOXICILLIN] | > 1000 | > 1000 |
| CC(=O)N1CCN(c2ccc(OCC3COC(Cn4ccnc4)(c4ccc(Cl)cc4Cl)O3)cc2)CC1 (centres undefined) [KETOCONAZOLE] |  | 15.6 |
| Cc1oncc1C(=O)Nc1ccc(C(F)(F)F)cc1 [LEFLUNOMIDE] | 177 | 112 |
| CC(C)NCC(O)c1ccc(O)c(O)c1 (centres undefined) [ISOPROTERENOL] | > 1000 | > 1000 |
| CCC(=O)O[C@H]1[C@H](O[C@@H]2[C@@H](C)[C@H](O[C@H]3C[C@@](C)(OC)[C@@H](O)[C@H](C)O3)[C@@H](C)C(=O)O[C@H](CC)[C@@](C)(O)[C@H](O)[C@@H](C)C(=O)[C@H](C)C[C@@]2(C)O)O[C@H](C)C[C@@H]1N(C)C [ERYTHROMYCIN ESTOLATE] | 4.1 | 11.4 |
| CCCN(CCC)S(=O)(=O)c1ccc(C(=O)O)cc1 [PROBENECID] | 565 | 510 |
| Nc1ccc(S(=O)(=O)c2ccc(N)cc2)cc1 [DAPSONE] |  | > 1000 |
| NS(=O)(=O)c1cc(C(=O)O)c(NCc2ccco2)cc1Cl [FUROSEMIDE] |  | > 1000 |
| C[C@@H]1C[C@H]2[C@@H]3CCC4=CC(=O)C=C[C@]4(C)[C@@]3(F)[C@@H](O)C[C@]2(C)[C@@]1(O)C(=O)CO [DEXAMETHASONE] | 137 | 232 |
| CNC(=C[N+](=O)[O-])NCCSCc1ccc(CN(C)C)o1 [RANITIDINE] |  | > 1000 |
| CCN1CCCC1CNC(=O)c1cc(S(N)(=O)=O)ccc1OC (centres undefined) [SULPIRIDE] | > 1000 | > 1000 |
| Nc1c2c(nc3ccccc13)CCCC2 [TACRINE] | > 1000 | > 1000 |
